From patent publication EP0075629A1, “Imidazole derivatives, their preparation, and their pharmaceutical compositions” (Sumitomo Chemical Industries Ltd., priority 1981, dated 1983)

System: Lewis lung carcinoma (solid)
Experiment: Antitumor effect on mouse experimental tumors (tumor inhibitory ratio by tumor weight)
Format: in vivo
Settings: Dose 100 mg/kg, route i.p., schedule 5q2d (days 1, 3, 5, 7 and 9); tumors removed and weighed at day 13; BDF1 male mice
Description: The antitumor activities of compounds of the present invention were estimated according to the methods described in "Cancer chemotheraphy reports" Part 3, Vol. 3, (No. 2) p.13 (1972).
BDF1 male mice, 5 weeks old, weighing between 18 and 22 grams were used. Each test group was composed of 6 to 7 mice. Two million cells of Lewis lung carcinoma were injected in the hind leg. The drug was administered intraperitoneally at days 1, 3, 5, 7 and 9 (or 5q2d).
After killing the mice at day 13, tumors were removed and weighed. The tumor inhibitory ratio was calculated according to the following formula: [formula]

`COc1ccc(C(=O)Oc2nc[nH]c2C(N)=O)cc1OC` [5-Carbamoyl-1H-imidazole-4-yl 3',4'-dimethoxy-benzoate] was tested, and the “Inhibition Ratio (%) Lewis lung carcinoma (solid)” value was 83.1%.
With `COc1cc(C(=O)Oc2nc[nH]c2C(N)=O)ccc1C` [5-Carbamoyl-1H-imidazole-4-yl 3'-methoxy-4'-methylbenzoate] the “Inhibition Ratio (%) Lewis lung carcinoma (solid)” value was 89.4%.
`NC(=O)c1[nH]cnc1OC(=O)C=Cc1cccc([N+](=O)[O-])c1` [5-Carbamoyl-1H-imidazole-4-yl m-nitrocinnamate] was tested, and the “Inhibition Ratio (%) Lewis lung carcinoma (solid)” value was 90%.
`NC(=O)c1[nH]cnc1OC(=O)C=Cc1ccc(Cl)cc1` [5-Carbamoyl-1H-imidazole-4-yl p-chlorocinnamate] was tested, and the “Inhibition Ratio (%) Lewis lung carcinoma (solid)” value was 90%.
For `NC(=O)c1[nH]cnc1OC(=O)c1ccc(-c2ccccc2)cc1` [5-Carbamoyl-1H-imidazole-4-yl p-phenylbenzoate], the “Inhibition Ratio (%) Lewis lung carcinoma (solid)” value was 77.0%.
